Assay results from ChEMBL document CHEMBL1201862, “PubChem BioAssay data set” (2004).
The source made the active and inactive calls.

Tests used:
[1] = target: DNA dC->dU-editing enzyme APOBEC-3A (Homo sapiens, UniProt P31941); experiment: Dose Response confirmation of small molecule APOBEC3A DNA Deaminase Inhibitors via a fluorescence-based single-stranded DNA deaminase assay. [Related pubchem assays (depositor defined):AID493011, AID493024]; assay type: functional
[2] = target: DNA dC->dU-editing enzyme APOBEC-3G (Homo sapiens, UniProt Q9HC16); assay type: functional;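 note: Dose-response counterscreen measuring inhibition of APOBEC3G DNA deaminase activity, run while confirming APOBEC3A inhibitors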
DNA dC->dU-editing enzyme APOBEC-3G, sequence (Q9HC16 whole entry): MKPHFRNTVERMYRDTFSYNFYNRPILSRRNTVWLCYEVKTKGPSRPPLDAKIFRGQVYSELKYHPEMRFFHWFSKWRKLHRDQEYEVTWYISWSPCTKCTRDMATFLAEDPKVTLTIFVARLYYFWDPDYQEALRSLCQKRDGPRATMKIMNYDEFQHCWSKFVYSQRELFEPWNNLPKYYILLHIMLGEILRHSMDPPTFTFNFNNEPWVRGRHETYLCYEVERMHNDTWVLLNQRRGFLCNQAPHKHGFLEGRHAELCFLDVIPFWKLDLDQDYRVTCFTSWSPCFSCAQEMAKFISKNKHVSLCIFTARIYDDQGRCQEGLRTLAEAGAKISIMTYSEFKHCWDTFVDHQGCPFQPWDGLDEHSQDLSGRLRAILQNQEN

Vero = experiment: cells; assay type: functional; details: Chlorocebus sabaeus
H9c2 = experiment: cells; assay type: functional, cell-based; details: Rattus norvegicus, H9c2, Myocardium;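 note: confirmatory concentration-response retest of ultra-high-throughput screening hits for modulation of myocardial damage; cell death induced by hydrogen peroxide oxidative stress; compound pretreatment for 60 min then peroxide exposure for 2 h; potency is for protecting the cells against peroxide damage rather than for killing them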
P388/ADR = experiment: cells; assay type: functional; details: Mus musculus
SN12K1 = experiment: cells; assay type: functional; details: Homo sapiens
P388 = experiment: cells; assay type: functional; details: Mus musculus
[3] = intracellular Trypanosoma cruzi inhibitors in host cells – cell-based, plate reader, cherry-pick samples, set 3, dose response (AID 651818); assay type: functional;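 note: compounds incubated with infected cells for about four days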

DNA dC->dU-editing enzyme APOBEC-3A, sequence (P31941 whole entry): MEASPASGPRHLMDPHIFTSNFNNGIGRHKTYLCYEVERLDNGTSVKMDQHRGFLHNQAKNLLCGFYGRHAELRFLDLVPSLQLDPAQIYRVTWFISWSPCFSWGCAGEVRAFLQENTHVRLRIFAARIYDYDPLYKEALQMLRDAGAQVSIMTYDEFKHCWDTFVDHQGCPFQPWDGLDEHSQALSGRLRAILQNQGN

Structure (SMILES)	GI50 (P388/ADR)	GI50 (SN12K1)	GI50 (P388)	AC50 [3]	also measured
COc1cc(Nc2cccc[n+]2C)cc(OC)c1OC	–	–	–	–	IC50 [1]: 3.48 µM (active); IC50 [2]: 2.85 µM (active)
COc1cccc(C2=CC(c3cc(OC)ccc3OC)n3nnnc3N2)c1 (centres undefined)	–	–	–	–	CC50 (Vero): 14.4 µM (active)
CCOC(=O)c1c(NC(=O)CSc2c[nH]c3ccccc23)sc2c1CCCC2	–	–	–	–	CC50 (Vero): > 25 µM (active)
COCCN1Cc2cccc(C(=O)Nc3cccc(-c4nc5ccccc5[nH]4)c3)c2C1=O	–	–	–	–	IC50 (H9c2): > 79 µM (inactive); CC50 (Vero): > 25 µM (active)
CCN1C(NCCCCO)=N[C@@H](c2cccc(C(F)(F)F)c2)C(C(=O)OC)=C1C	–	–	–	–	IC50 [1]: 2.59 µM (active); IC50 [2]: 2.44 µM (active)
CC[C@]12C=CCN3CCC4(c5cc(Br)c(OC)cc5N(C)C4[C@@](O)(C(=O)OC)[C@@H]1OC(C)=O)C32 (some centres undefined)	–	–	–	–	IC50 [1]: 2.14 µM (active); IC50 [2]: 1.81 µM (active)
C=CCN1C(=O)/C(=C/c2ccc3c(c2)CCCN3CCC)C(=O)NC1=S	–	–	–	–	CC50 (Vero): 18.3 µM (active)
CC[N+](C)(CC)CC(=O)OCC1C(C)C=C(C)CC1C (centres undefined)	–	–	–	–	IC50 [1]: 1.31 µM (active); IC50 [2]: 2.04 µM (active)
O=C(NCCOc1ccccc1)c1nc[nH]n1	–	–	–	–	IC50 [1]: 6.18 µM (active); IC50 [2]: 18.7 µM (active)
COc1cccc2c1C(=O)c1c(O)c3c(c(O)c1C2=O)C[C@@](O)(C(C)=O)C[C@@H]3OC1CC(N)C(O)C(C)O1 (some centres undefined)	1.23 µM (inactive)	0.069 µM (active)	0.076 µM (active)	–	–
CN1CCC(N(C)S(=O)(=O)c2ccc(NC(=O)c3ccc(S(=O)(=O)N(C)C)cc3)cc2)CC1	–	–	–	–	IC50 [1]: 13.9 µM (active); IC50 [2]: 16 µM (active)
CCN(CC)CCNC(=O)c1ccc(NC(=O)C2CC(=O)N(c3ccc4c(c3)OCCO4)C2)cc1 (centres undefined)	–	–	–	–	IC50 [1]: 7.53 µM (active); IC50 [2]: 8.16 µM (active)
C=CC[C@@H](CC(=O)N(CCO)Cc1ccccc1)C(=O)N[C@@H](COC(=O)[C@@H](CC=C)Cc1ccc(F)cc1)Cc1c[nH]c2ccccc12	–	–	–	–	CC50 (Vero): 18 µM (active)
Cc1ccc(N(O)C(C)(C)C)cc1	24.8 µM (inactive)	> 100 µM (inactive)	> 52.1 µM (inactive)	–	–
C/C(=N\NC(=S)N1CCN(c2ccccn2)CC1)c1ncccn1	0.00356 µM (active)	0.007 µM (active)	0.00326 µM (active)	–	–
O=C1N[C@@H]([C@H]2CC[C@H](Cl)CN2)C(=O)N[C@H]1[C@H]1CC[C@H](Cl)CN1	0.318 µM (active)	1.02 µM (active)	0.327 µM (active)	–	–
O=[N+]([O-])c1cc2ncc(-c3ccccc3)c(O)c2cc1/C(Cl)=C/c1ccccc1	4.53 µM (inactive)	9.08 µM (inactive)	7.35 µM (inactive)	–	–
CC(=O)/C=C/c1c[nH]c(=O)[nH]c1=O	148 µM (inactive)	121 µM (inactive)	164 µM (inactive)	–	–
NC(=O)NN=C(CS)CS	29.2 µM (inactive)	18.7 µM (inactive)	19.1 µM (inactive)	–	–
O=C(NCCCCCCNC(=O)n1cc(F)c(=O)[nH]c1=O)NCCCOCCOCCCNC(=O)C(O)C(O)C(O)C(O)CO (centres undefined)	0.0822 µM (active)	> 1.91 µM (inactive)	0.107 µM (active)	–	–

Structure (SMILES)	GI50 (P388/ADR)	GI50 (SN12K1)	GI50 (P388)	AC50 [3]	also measured
CC(=O)NC(Cc1ccsc1)C(=O)O (centres undefined)	> 100 µM (inactive)	> 100 µM (inactive)	> 100 µM (inactive)	–	–
COc1cc(/N=N\c2cccc(S(=O)(=O)O)c2)c(C)cc1/N=N\c1ccc(/C=C/c2ccc(/N=[N+](/[O-])c3ccc(/C=C/c4ccc(/N=N\c5cc(C)c(/N=N/c6cccc(S(=O)(=O)O)c6)cc5OC)cc4)c(S(=O)(=O)O)c3)cc2S(=O)(=O)O)cc1	–	> 100 µM (inactive)	> 100 µM (inactive)	–	–
C[C@H](CO)N1C[C@H](C)[C@H](CN(C)Cc2ccc(Cl)c(Cl)c2)Oc2c(NS(C)(=O)=O)cccc2C1=O	–	–	–	17.3 µM (active)	–
C[C@@H]1CN([C@H](C)CO)C(=O)Cc2cc(NC(=O)Nc3ccc(C(F)(F)F)cc3)ccc2O[C@@H]1CN(C)Cc1ccc(Oc2ccccc2)cc1	–	–	–	3.3 µM (active)	–
C[C@@H]1CN([C@@H](C)CO)C(=O)Cc2cc(NC(=O)Nc3ccc(C(F)(F)F)cc3)ccc2O[C@@H]1CN(C)C(=O)Nc1ccc(C(F)(F)F)cc1	–	–	–	3.66 µM (active)	–
COc1ccc(S(=O)(=O)Nc2ccc3c(c2)CC(=O)N([C@H](C)CO)C[C@@H](C)[C@@H](CN(C)Cc2ccc(Oc4ccccc4)cc2)O3)cc1	–	–	–	2.26 µM (active)	–
C[C@@H]1CN([C@H](C)CO)C(=O)Cc2cc(NS(=O)(=O)c3ccc(F)cc3)ccc2O[C@@H]1CN(C)S(=O)(=O)c1ccccc1	–	–	–	5.74 µM (active)	–
C[C@H]1CN([C@@H](C)CO)C(=O)c2cc(NC(=O)Nc3ccc(F)cc3)ccc2O[C@H]1CN(C)Cc1ccc(-c2ccccc2)cc1	–	–	–	3.74 µM (active)	–
C[C@@H]1CN([C@H](C)CO)C(=O)c2cc(NS(=O)(=O)c3ccc(F)cc3)ccc2O[C@H]1CN(C)Cc1ccc(-c2ccccc2)cc1	–	–	–	5.77 µM (active)	–
C[C@@H]1CN([C@@H](C)CO)C(=O)c2cc(NS(=O)(=O)c3ccc(F)cc3)ccc2O[C@H]1CN(C)Cc1ccc(C(=O)Nc2ccccc2N)cc1	–	–	–	3.6 µM (active)	–
C[C@H](CO)N1C[C@H](C)[C@H](CN(C)Cc2ccc(C(F)(F)F)cc2)Oc2ccc(NC(=O)Cc3cn(C)c4ccccc34)cc2C1=O	–	–	–	4.35 µM (active)	–
C[C@H]1CN([C@@H](C)CO)C(=O)c2cc(NC(=O)Cc3cn(C)c4ccccc34)ccc2O[C@H]1CN(C)Cc1ccc(Oc2ccccc2)cc1	–	–	–	6.34 µM (active)	–
C[C@H]1CN([C@@H](C)CO)C(=O)c2cc(NC(=O)Nc3ccc(C(F)(F)F)cc3)ccc2O[C@@H]1CN(C)Cc1ccc2c(c1)OCO2	–	–	–	4.02 µM (active)	–
C[C@@H]1CN([C@H](C)CO)C(=O)Cc2cc(NC(=O)Nc3ccc4c(c3)OCO4)ccc2O[C@H]1CN(C)Cc1ccc(Oc2ccccc2)cc1	–	–	–	3.08 µM (active)	–
C[C@H]1CN([C@@H](C)CO)C(=O)c2cccc(N(C)C)c2O[C@H]1CN(C)Cc1ccc(C(=O)Nc2ccccc2N)cc1	–	–	–	4.84 µM (active)	–
C[C@H](CO)N1C[C@H](C)[C@H](CN(C)S(=O)(=O)c2ccc(Cl)cc2)Oc2c(NC(=O)Nc3ccc(C(F)(F)F)cc3)cccc2C1=O	–	–	–	4.44 µM (active)	–
CC(C)C(NC(=O)c1ccc2c(c1)OCO2)C(=O)N/N=C\c1ccco1 (centres undefined)	–	–	–	–	IC50 [1]: > 100 µM (inactive); IC50 [2]: 15.9 µM (active)
CCN(CC)c1ccc2cc(C(=O)Nc3ccc4[nH]c(C(=O)N5C[C@@H](CCl)c6c5cc(OC(=O)Nc5ccccc5)c5[nH]cc(C)c65)cc4c3)oc2c1 [CARZELESIN]	259 µM (inactive)	0.00016 µM (active)	8.38e-05 µM (active)	–	–
CC1=C2C(=CO[C@H](C)[C@H]2C)C(O)=C(C(=O)O)C1=O [CITRININ]	11.5 µM (inactive)	15.3 µM (inactive)	17 µM (inactive)	–	–
C[C@]12C=CC(=O)C=C1CC[C@@H]1[C@@H]2CC[C@]2(C)OC(=O)CC[C@@H]12 [TESTOLACTONE]	161 µM (inactive)	458 µM (inactive)	162 µM (inactive)	–	–
